Results taken from US20110178104A1, “Anti-Heparin Compounds” (POLYMEDIX INC., priority 2010, published 2011).
Read-outs that look alike come from different tables or passages of the source.

Assays:
fondaparinux (FONDAPX) = experiment: FXa chromogenic assay (absence of plasma), fondaparinux
enoxaparin (ENOX) = experiment: FXa chromogenic assay (absence of plasma), enoxaparin
[1] = tested on: unfractionated heparin (UFH); experiment: aPTT clotting assay, UFH 0.2 U/mL in plasma (Example 7); format: biochemical
Procedure: aPTT clotting Assay. Unfractionated heparin was mixed with plasma at a final concentration of 0.2 U/mL. […] The ACL Elite Hemostasis analyzer (Beckman Coulter™) was used to add aPTT reagent (HemosIL SynthASil) to supplemented plasma. Clotting was initiated by addition of CaCl2 and time to clot was recorded.

[2] = fondaparinux 0.02 μg/mL, absence of plasma
[3] = enoxaparin 0.1 μg/mL, absence of plasma

Row | Compound | FONDAPX (FXa) EC50 (fondaparinux (FONDAPX); [2]) | ENOX (FXa) EC50 (enoxaparin (ENOX); [3]) | UFH (aPTT) EC50 ([1]; UFH 0.2 U/mL in plasma) | FONDAPX (FXa) EC50 (fondaparinux (FONDAPX)) | ENOX (FXa) EC50 (enoxaparin (ENOX)) | UFH (aPTT) EC50 [1]
1 | CN(C)CCNC(=O)c1cc(C(=O)N[C@H]2CC[C@H](NC(=O)c3cc(C(=O)NCCN(C)C)c(OCCCCCN)cc3OCCCCCN)CC2)c(OCCCCCN)cc1OCCCCCN [Compound 5] | inactive | 23.71 µg/mL | 19.76 µg/mL | – | – | –
2 | N=C(N)NCCCCC(=O)Nc1cc(C(F)(F)F)cc(NC(=O)c2cc(C(=O)Nc3cc(C(F)(F)F)cc(NC(=O)CCCCNC(=N)N)c3SCCN)ncn2)c1SCCN [Compound 6] | inactive | 0.57 µg/mL | 29.11 µg/mL | – | – | –
3 | COc1ccc(NC(=O)[C@H](CCCNC(=N)N)NC(=O)c2cc(NC(=O)[C@H](CCCNC(=N)N)NC(=O)c3cc(NC(=O)[C@H](CCCNC(=N)N)NC(=O)c4cc(NC(=O)[C@@H](N)CCCNC(=N)N)ccc4OC)ccc3OC)ccc2OC)cc1C(N)=O [Compound 7] | 1.49 µg/mL | 0.21 µg/mL | 1.84 µg/mL | – | – | –
4 | N=C(N)NCCC[C@@H](N)C(=O)Nc1ccc(OCCNC(=N)N)c(C(=O)N[C@H](CCCNC(=N)N)C(=O)Nc2ccc(OCCNC(=N)N)c(C(=O)N[C@H](CCCNC(=N)N)C(=O)Nc3ccc(OCCNC(=N)N)c(C(N)=O)c3)c2)c1 [Compound 9] | 40.16 µg/mL | 2.90 µg/mL | 5.35 µg/mL | – | – | –
5 | COc1ccc(NC(=O)[C@@H](CCCNC(=N)N)NC(=O)c2cc(NC(=O)[C@@H](CCCNC(=N)N)NC(=O)c3cc(NC(=O)[C@@H](CCCNC(=N)N)NC(=O)c4cc(NC(=O)[C@H](N)CCCNC(=N)N)ccc4OC)ccc3OCCNC(=N)N)ccc2OCCNC(=N)N)cc1C(N)=O [Compound 11] | 7.04 µg/mL | 1.66 µg/mL | 5.79 µg/mL | – | – | –
6 | COc1ccc(NC(=O)[C@@H](CCCCN)NC(=O)c2cc(NC(=O)[C@@H](CCCCN)NC(=O)c3cc(NC(=O)[C@@H](CCCCN)NC(=O)c4cc(NC(=O)[C@H](N)CCCCN)ccc4OC)ccc3OC)ccc2OC)cc1C(N)=O [Compound 17] | 11.15 µg/mL | 0.50 µg/mL | 2.33 µg/mL | – | – | –
7 | COc1ccc(NC(=O)[C@@H](CCCNC(=N)N)NC(=O)c2cc(NC(=O)[C@@H](CCCNC(=N)N)NC(=O)c3cc(NC(=O)[C@@H](CCCNC(=N)N)NC(=O)c4cc(NC(=O)[C@H](N)CCCNC(=N)N)ccc4OCCNC(=N)N)ccc3OC)ccc2OC)cc1C(N)=O [Compound 19] | 3.35 µg/mL | 0.27 µg/mL | 2.11 µg/mL | – | – | –
8 | N=C(N)NCCC[C@@H](N)C(=O)Nc1ccc(Cl)c(C(=O)N[C@H](CCCNC(=N)N)C(=O)Nc2ccc(Cl)c(C(=O)N[C@H](CCCNC(=N)N)C(=O)Nc3ccc(Cl)c(C(=O)N[C@H](CCCNC(=N)N)C(=O)Nc4ccc(Cl)c(C(N)=O)c4)c3)c2)c1 [Compound 26] | 36.65 µg/mL | 3.93 µg/mL | 4.26 µg/mL | – | – | –
9 | COc1ccc(NC(=O)[C@@H](CCCNC(=N)N)NC(=O)CCCCNC(=N)N)cc1C(=O)N[C@H](CCCNC(=N)N)C(=O)Nc1ccc(OC)c(C(=O)N[C@H](CCCNC(=N)N)C(=O)Nc2ccc(OC)c(C(=O)N[C@H](CCCNC(=N)N)C(=O)Nc3ccc(OCCNC(=N)N)c(C(N)=O)c3)c2)c1 [Compound 27] | 2.51 µg/mL | 0.10 µg/mL | 2.19 µg/mL | – | – | –
10 | COc1ccc(NC(=O)[C@H](CCCCN)NC(=O)c2cc(NC(=O)[C@H](CCCCN)NC(=O)c3cc(NC(=O)[C@H](CCCCN)NC(=O)c4cc(NC(=O)[C@H](CCCCN)NC(C)=O)ccc4OC)ccc3OC)ccc2OC)cc1C(N)=O [Compound 28] | 3.21 µg/mL | 0.23 µg/mL | 2.28 µg/mL | – | – | –
11 | COc1ccc(NC(=O)[C@@H](CCCN)NC(=O)c2cc(NC(=O)[C@@H](CCCNC(=N)N)NC(=O)c3cc(NC(=O)[C@@H](CCCNC(=N)N)NC(=O)c4cc(NC(=O)[C@H](N)CCCN)ccc4OC)ccc3OC)ccc2OC)cc1C(N)=O [Compound 30] | – | – | – | 3.99 µg/mL | 0.28 µg/mL | 1.52 µg/mL
12 | COc1c(NC(=O)[C@@H](CCCCN)NC(=O)c2cccc(NC(=O)[C@@H](CCCCN)NC(=O)c3cccc(NC(=O)[C@@H](CCCCN)NC(=O)c4cccc(NC(=O)[C@H](N)CCCCN)c4OC)c3OC)c2OC)cccc1C(N)=O [Compound 34] | inactive | 45.00 µg/mL | inactive | – | – | –
13 | COc1ccc(C(=O)N[C@H](CCCCN)C(=O)Nc2cc(C(=O)N[C@H](CCCCN)C(=O)Nc3cc(C(=O)N[C@H](CCCCN)C(=O)Nc4cc(C(N)=O)ccc4OC)ccc3OC)ccc2OC)cc1NC(=O)[C@H](N)CCCCN [Compound 35] | inactive | 45.00 µg/mL | 30.65 µg/mL | – | – | –
14 | COc1ccc(NC(=O)[C@@H](CCCNC(=N)N)NC(=O)c2cc(NC(=O)[C@@H](CCCNC(=N)N)NC(=O)c3cc(NC(=O)[C@@H](CCCNC(=N)N)NC(=O)c4cc(NC(=O)[C@@H](CCCNC(=N)N)NC(=O)CCCCNC(=N)N)ccc4OC)ccc3OC)ccc2OC)cc1C(N)=O [Compound 38] | 1.94 µg/mL | 0.18 µg/mL | 2.37 µg/mL | – | – | –
15 | COc1ccc(NC(=O)[C@@H](CCCN)NC(=O)c2cc(NC(=O)[C@@H](CCCNC(=N)N)NC(=O)c3cc(NC(=O)[C@@H](CCCN)NC(=O)c4cc(NC(=O)[C@H](N)CCCNC(=N)N)ccc4OC)ccc3OC)ccc2OC)cc1C(N)=O [Compound 39] | – | – | – | 17.09 µg/mL | 1.11 µg/mL | 3.07 µg/mL
16 | COc1ccc(NC(=O)[C@@H](CCCN)NC(=O)c2cc(NC(=O)[C@@H](CCCN)NC(=O)c3cc(NC(=O)[C@@H](CCCN)NC(=O)c4cc(NC(=O)[C@H](N)CCCN)ccc4OC)ccc3OC)ccc2OC)cc1C(N)=O [Compound 40] | >90 µg/mL | 1.84 µg/mL | 2.88 µg/mL | – | – | –
17 | COc1ccc(NC(=O)[C@@H](CCCNC(=N)N)NC(=O)c2cc(NC(=O)[C@@H](CCCNC(=N)N)NC(=O)c3cc(NC(=O)[C@@H](CCCNC(=N)N)NC(=O)c4cc(NC(=O)[C@H](N)CCCNC(=N)N)ccc4OC)ccc3OC)ccc2OC)cc1C(=O)NCCCCCN [Compound 41] | 3.85 µg/mL | 0.16 µg/mL | 1.65 µg/mL | – | – | –
18 | COc1ccc(NC(=O)[C@@H](CCCNC(=N)N)NC(=O)c2cc(NC(=O)[C@@H](CCCNC(=N)N)NC(=O)c3cc(NC(=O)[C@H](N)CCCNC(=N)N)ccc3OC)ccc2OC)cc1C(=O)N[C@H](CCCNC(=N)N)C(N)=O [Compound 42] | 70.66 µg/mL | 4.07 µg/mL | 2.34 µg/mL | – | – | –
19 | COc1ccc(NC(=O)[C@@H](CCCCN)NC(=O)c2cc(NC(=O)[C@@H](CCCNC(=N)N)NC(=O)c3cc(NC(=O)[C@@H](CCCCN)NC(=O)c4cc(NC(=O)[C@H](N)CCCNC(=N)N)ccc4OC)ccc3OC)ccc2OC)cc1C(N)=O [Compound 43] | 4.44 µg/mL | 0.36 µg/mL | 2.33 µg/mL | – | – | –
